Test system: adalimumab producing cell line 2
Assay: Extracellular MGO measurement in cell culture supernatant, cell line 2
Format: cell-based
Conditions: Example 4; for MGO concentration level: 0.15 g/l 2DDG
Method: About 20 ml of cell free supernatant were collected in some cases for measurement of extracellular MGO in the supernatant. For this, a 3,000 RPM 30 min centrifugation was performed to remove the cells.
Remove protein: After quick thawing covered with aluminum, cell culture samples (10 mL) were filtrated by a 3 kDa or 10 kDa membrane filter (Millipore, UFC900369) until the solution left inside the filter was around 1 mL, the flow through that was used for MGO analysis.
Derivative MGO: 750 uL of flow through, 75 uL of 1 M NaH2PO4 buffer (pH 8), 50 mM 1,2 diaminobenzene (Aldrich P/N: P23938), and 600 uL of MilliQ water were mixed well and incubated at 60° C. for 3 hours. After cooling down and centrifuging at 10000 rpm for 3 minutes, the sample solution was ready to be injected.
External Standards to Quantitate MGO: external standards were used to quantitate MGO in cell culture. Based on the following table, the standard solutions were prepared. The standard solutions were incubated at 60° C. for 3 hours. After cooling down, the standard solutions were analyzed to get an external standard curve. The concentration of MGO in culture was calculated based on the external standard curve. (MGO: CMP Biomedicals, P/N: 155558; GO: Fisher Scientifics, P/N: S25698). 10 mM and 1 mM MGO were diluted from the MGO and 1000 uM and 10 uM GO were diluted from the GO. The diluent was water.
HPLC Method: A reverse phase HPLC method was used for MGO analysis. The parameters are listed in the method information table and gradient table below.
The measured concentration based on external quantitation multiplied by two is the final MGO concentration.
The objective of this experiment was to further evaluate the control of MGO synthesis/MGO protein modification through reduced glucose consumption in a different cell line, Cell line 2. There were two parts to this experiment. In one part, different levels of 2DDG were supplemented (0.05 g/l, 0.15 g/l) similar to the experimental design in Example 2. Prior to this experiment, a study was performed in shake flask culture to evaluate the dose effect of 2DDG on this cell line (data not shown). In the other part, different glucose profiles were maintained in the culture through the feedback control of glucose feed amounts. […] As described in Example 3, extracellular MGO quantification was performed for day 7, 8 and 9 for the samples below and percentage of acidic species were quantified using WCX-10 analysis post protein A of cell culture harvests.
The cells were grown to maximum viable cell densities (VCD) in the range of 10-12×10^6 cells/ml for the different conditions tested. […] Samples were then subsequently analyzed using Lys-C peptide mapping for quantification of MGO modification post protein A purification. […]

O=CC[C@@H](O)[C@H](O)[C@H](O)CO [Test 2DDG, 2-Deoxy-D-Glucose]
MGO concentration profile (0.05 g/l 2DDG, versus control): No significant difference | MGO concentration level (day 7, control 28 μM): 14 µM | MGO concentration level (day 8, control 64 μM): 16 µM | MGO concentration level (day not printed (third value, after day 7 and day 8), control 157 μM (day 9)): 20 µM

From patent US20160115225A1, “Methods of Reducing Methylglyoxal (MGO) Modification of Recombinant Proteins in Cell Culture” (AbbVie Inc., priority 2014, published 2016)
